Assay results reported in patent US7326721B2 (Hypnion, Inc., priority 2003, dated 2008).

Legend:
Glutamate, Kainate Site = assay: Table 12 panel: Glutamate, Kainate; type: binding; details: 1.0E−6, average N=2
Description: (§1) The percentage inhibition (average; N=2) for these receptors is shown below in Table 12.
(§2) Values in Table 12 are expressed as percentage inhibition of specific binding, and these values represent the average of replicate tubes at each of the concentrations tested.

[1] = biological target: Oxidase, MAO-A, Peripheral (Homo sapiens, UniProt P21397); assay: Table 12 panel: MAO-A; type: biochemical; details: 1.0E−6, average N=2
Description: as §1, §2

[2] = system: Vasoactive Intestinal Peptide, Non-selective; assay: Table 12 panel: VIP; type: binding; details: 1.0E−6, average N=2
Description: as §1, §2

Galanin, Non-Selective = assay: Table 12 panel: Galanin; type: binding; details: 1.0E−6, average N=2
Description: as §1, §2

Bradykinin, BK2 = Bradykinin, BK2 (Homo sapiens, UniProt P30411); assay: Table 12 panel: Bradykinin, BK2; details: 1.0E−6, average N=2, read-out: percentage inhibition of specific binding
Description: as §1, §2

[3] = biological target: Glutamate, NMDA, Glycine (Stry-insens Site) (Homo sapiens, UniProt Q05586); assay: Table 12 panel: Glutamate, NMDA, Glycine; details: 1.0E−6, average N=2, read-out: percentage inhibition of specific binding
Description: as §1, §2

Histamine, H3 = Histamine, H3 (Homo sapiens, UniProt Q9Y5N1); assay: biochemical; details: read-out: percentage inhibition of specific binding
[4] = system: T1, Adrenergic, Alpha 2, Non-selective; assay: Table 12 panel: Adrenergic, Alpha 2; type: binding; details: Adrenergic, Alpha 2; 1.0E−6; average N=2
T1 construct: other: Adrenergic, Alpha 2; 1.0E−6; average N=2

[5] = biological target: Cholecystokinin, CCK2 (CCKB) (Homo sapiens, UniProt P32239); assay: Table 12 panel: CCK2; details: 1.0E−6, average N=2, read-out: percentage inhibition of specific binding
Description: as §1, §2

Testosterone (cytosolic) = Testosterone (cytosolic) (Homo sapiens, UniProt P10275); assay: Table 12 panel: Testosterone; details: 1.0E−6, average N=2, read-out: percentage inhibition of specific binding
Description: as §1, §2

Oxytocin = Oxytocin (Homo sapiens, UniProt P30559); assay: Table 12 panel: Oxytocin; details: 1.0E−6, average N=2, read-out: percentage inhibition of specific binding
Description: as §1, §2

Leukotriene, LTD4 = Leukotriene, LTD4 (Homo sapiens, UniProt Q9Y271); assay: Table 12 panel: Leukotriene, LTD4; details: 1.0E−6, average N=2, read-out: percentage inhibition of specific binding
Description: as §1, §2

[6] = biological target: Choline Acetyltransferase (Homo sapiens, UniProt P28329); assay: Table 12 panel: Choline Acetyltransferase; type: biochemical; details: 1.0E−6, average N=2
Description: as §1, §2

Vasopressin 1 = Vasopressin 1 (Homo sapiens, UniProt P37288); assay: Table 12 panel: Vasopressin 1; details: 1.0E−6, average N=2, read-out: percentage inhibition of specific binding
Description: as §1, §2

[7] = system: Muscarinic, Non-selective, Central; assay: Table 12 panel: Muscarinic, Central; type: binding; details: 1.0E−6, average N=2
Description: as §1, §2

[8] = biological target: Neurokinin, NK2 (NKA) (hr) (Homo sapiens, UniProt P21452); assay: Table 12 panel: NK2; details: 1.0E−6, average N=2, read-out: percentage inhibition of specific binding
Description: as §1, §2

CYP 2C19 = biological target: T2, CYP 2C19 (Homo sapiens, UniProt P33261); assay: Cytochrome P450 inhibition: CYP 2C19; type: in vitro ADME; details: human microsomal preparation
T2 construct: in a commercially available human microsomal preparation; purchased; host or cells: human microsomal preparation
Description: (§3) Cytochrome P450 inhibition was studied with HY2901 in vitro. […] In addition, the in vitro rate of metabolism in rat, dog, monkey, and human hepatocyte cultures was determined for HY2901.

[9] = Plasma pharmacokinetics in rats; type: in vivo, rat
Description: (§4) The following pharmacokinetic parameters are computed from the individual plasma concentrations of the modified antihistamine compound using a noncompartmental approach and appropriate validated pharmacokinetic software (e.g., WinNonlin Professional). Concentration values reported as BLQ are set to zero. If concentration data are available, interim calculations are done (non-QC.d data) between periods if possible.
Dose proportionality following study medication is explored by analyzing natural log-transformed pharmacokinetic variables AUC(0-t), AUC(0-inf), and Cmax with a linear model including the natural log-transformed dose as covariates. Dose proportionality is concluded if the 95% confidence interval for the slope of the covariate includes the value of 1. Dose linearity for AUC(0-t), AUC(0-inf), and Cmax is also explored by a linear model. See, e.g., Gibaldi and Perrier, Pharmacokinetics, Second Ed., Marcel Dekker: New York, N.Y. (1982). Nominal sample collection times were used in calculations, except where actual sampling times fell outside the protocol-specified acceptable time ranges. The following parameters were estimated: • Cmax Maximum plasma concentration. • Tmax Time to maximum concentration. • Cmax and Tmax were reported directly from the concentration-time data. • AUC0-T Area under the plasma concentration-time curve from time […] to the last time point with measurable concentrations, estimated bylinear trapezoidal rule. • AUC0-00 Area under the plasma concentration-time curve extrapolated to infinity, calculated using the formula: AUC0-00=AUC0-1+C0/λ0 • Where Ct is the last measurable concentration in plasma and λz is the terminal phase elimination rate constant estimated using log-linear regression during the terminal elimination phase. The number of points used in λz calculation was determined by visual inspection of the data describing the terminal phase. At lest the last three time points with measurable values were used in λz calculation. […]

CYP 2C9 = biological target: T3, CYP 2C9 (Homo sapiens, UniProt P11712); assay: Cytochrome P450 inhibition: CYP 2C9; type: in vitro ADME; details: human microsomal preparation
T3 construct: in a commercially available human microsomal preparation; purchased; host or cells: human microsomal preparation
Description: as §3

CYP 2D6 = biological target: T4, CYP 2D6 (Homo sapiens, UniProt P10635); assay: Cytochrome P450 inhibition: CYP 2D6; type: in vitro ADME; details: human microsomal preparation
T4 construct: in a commercially available human microsomal preparation; purchased; host or cells: human microsomal preparation
Description: as §3

[10] = Plasma pharmacokinetics in cynomolgus monkeys; type: in vivo; details: cynomolgus monkey, 3 mg/kg
Description: as §4
Dose proportionality following study medication is explored by analyzing natural log-transformed pharmacokinetic variables AUC(0-t), AUC(0-inf), and Cmax with a linear model including the natural log-transformed dose as covariates. […] The following parameters were estimated: • Cmax Maximum plasma concentration. • Tmax Time to maximum concentration. • Cmax and Tmax were reported directly from the concentration-time data. • AUC0-T Area under the plasma concentration-time curve from time […] to the last time point with measurable concentrations, estimated bylinear trapezoidal rule. • AUC0-00 Area under the plasma concentration-time curve extrapolated to infinity, calculated using the formula: AUC0-00=AUC0-1+C0/λ0 • Where Ct is the last measurable concentration in plasma and λz is the terminal phase elimination rate constant estimated using log-linear regression during the terminal elimination phase. […]

telemetered Beagle dogs = assay: ECG and arterial blood pressure in telemetered Beagle dogs; type: in vivo, dog
Description: To determine if HY2901 could produce any changes in QT interval, the compound was studied in telemetered Beagle dogs. Dogs were implanted with devices to continuously monitor ECG and arterial blood pressure. Dogs (groups of 4) were studied in a Latin square cross-over design, with each dog receiving 3 different doses and a placebo. Two studies were conducted with doses of 0.3, 1, 3, 10, and 30 mg/kg. […] The tachycardia persisted for 6–8 hours postdose at 0.3 and 1 mg/kg. A ceiling effect to the heart rate increase seemed to exist with heart rates peaking at approximately 150–160 in both the 10 and 30 mg/kg dose groups.

Chain of Bradykinin, BK2 (P30411 whole entry): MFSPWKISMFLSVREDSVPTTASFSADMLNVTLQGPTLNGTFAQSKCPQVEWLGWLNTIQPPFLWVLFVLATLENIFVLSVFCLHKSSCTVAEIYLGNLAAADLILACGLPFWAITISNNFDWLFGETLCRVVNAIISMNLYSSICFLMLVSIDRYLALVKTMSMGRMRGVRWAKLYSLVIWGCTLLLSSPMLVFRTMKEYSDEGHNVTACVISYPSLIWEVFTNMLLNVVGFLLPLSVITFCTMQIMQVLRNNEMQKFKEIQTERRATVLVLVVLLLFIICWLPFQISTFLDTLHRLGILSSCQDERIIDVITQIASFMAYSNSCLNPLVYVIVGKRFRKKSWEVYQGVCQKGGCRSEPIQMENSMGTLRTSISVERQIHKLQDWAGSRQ
Chain of Leukotriene, LTD4 (Q9Y271 whole entry): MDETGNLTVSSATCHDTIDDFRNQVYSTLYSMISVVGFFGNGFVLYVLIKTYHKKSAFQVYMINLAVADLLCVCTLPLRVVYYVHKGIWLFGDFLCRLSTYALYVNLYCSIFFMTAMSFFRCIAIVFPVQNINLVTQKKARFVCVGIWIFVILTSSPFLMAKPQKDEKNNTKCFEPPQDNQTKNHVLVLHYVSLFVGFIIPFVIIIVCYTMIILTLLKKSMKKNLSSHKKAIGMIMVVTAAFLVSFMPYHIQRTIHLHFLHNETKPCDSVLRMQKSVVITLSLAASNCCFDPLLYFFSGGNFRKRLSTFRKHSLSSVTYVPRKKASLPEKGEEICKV
T2 sequence (P33261 whole entry): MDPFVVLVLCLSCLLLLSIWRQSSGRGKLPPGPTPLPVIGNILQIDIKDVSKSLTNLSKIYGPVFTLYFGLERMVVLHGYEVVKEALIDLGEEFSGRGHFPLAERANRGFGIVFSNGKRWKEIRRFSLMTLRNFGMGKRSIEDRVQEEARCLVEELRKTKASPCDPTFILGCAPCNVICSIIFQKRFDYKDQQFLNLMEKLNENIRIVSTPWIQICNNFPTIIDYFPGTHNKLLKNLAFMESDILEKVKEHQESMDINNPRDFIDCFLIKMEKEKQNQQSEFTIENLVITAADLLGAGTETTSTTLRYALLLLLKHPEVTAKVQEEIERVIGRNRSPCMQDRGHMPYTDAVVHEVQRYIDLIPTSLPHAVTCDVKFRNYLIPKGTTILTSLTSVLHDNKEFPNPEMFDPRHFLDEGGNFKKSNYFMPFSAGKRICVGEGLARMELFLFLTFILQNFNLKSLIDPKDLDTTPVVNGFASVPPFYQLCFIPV
Chain of Cholecystokinin, CCK2 (CCKB) (P32239 whole entry): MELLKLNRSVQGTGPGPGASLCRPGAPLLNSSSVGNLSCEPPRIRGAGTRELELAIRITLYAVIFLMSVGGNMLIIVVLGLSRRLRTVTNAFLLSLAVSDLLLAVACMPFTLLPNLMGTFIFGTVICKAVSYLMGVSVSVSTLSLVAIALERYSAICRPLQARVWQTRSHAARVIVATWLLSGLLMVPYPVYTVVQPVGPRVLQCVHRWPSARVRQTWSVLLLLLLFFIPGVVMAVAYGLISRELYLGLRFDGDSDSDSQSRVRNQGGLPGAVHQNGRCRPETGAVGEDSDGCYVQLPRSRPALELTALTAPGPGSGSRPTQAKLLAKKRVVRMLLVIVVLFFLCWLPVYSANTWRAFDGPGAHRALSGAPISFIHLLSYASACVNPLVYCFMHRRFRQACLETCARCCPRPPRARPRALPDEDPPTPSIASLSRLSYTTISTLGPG
Chain of Choline Acetyltransferase (P28329 whole entry): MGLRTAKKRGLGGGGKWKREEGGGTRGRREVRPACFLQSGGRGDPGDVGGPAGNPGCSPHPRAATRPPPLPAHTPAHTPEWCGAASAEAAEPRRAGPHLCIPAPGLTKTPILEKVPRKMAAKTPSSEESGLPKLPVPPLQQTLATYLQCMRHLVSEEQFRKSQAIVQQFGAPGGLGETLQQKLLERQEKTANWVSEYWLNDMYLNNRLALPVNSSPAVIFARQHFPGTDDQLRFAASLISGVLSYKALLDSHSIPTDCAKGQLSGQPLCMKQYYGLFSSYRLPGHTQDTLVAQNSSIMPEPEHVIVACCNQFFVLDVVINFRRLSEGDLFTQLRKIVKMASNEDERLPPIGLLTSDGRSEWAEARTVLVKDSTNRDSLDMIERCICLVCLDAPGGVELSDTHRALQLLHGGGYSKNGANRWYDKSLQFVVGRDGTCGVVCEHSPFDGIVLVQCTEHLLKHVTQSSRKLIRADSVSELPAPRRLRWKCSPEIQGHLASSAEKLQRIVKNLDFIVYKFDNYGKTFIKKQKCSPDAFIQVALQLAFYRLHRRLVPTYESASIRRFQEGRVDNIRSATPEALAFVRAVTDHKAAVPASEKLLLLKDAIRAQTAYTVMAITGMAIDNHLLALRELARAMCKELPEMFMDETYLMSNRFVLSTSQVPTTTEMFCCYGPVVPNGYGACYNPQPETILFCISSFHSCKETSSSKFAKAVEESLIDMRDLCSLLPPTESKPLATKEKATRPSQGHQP
Chain of Histamine, H3 (Q9Y5N1 whole entry): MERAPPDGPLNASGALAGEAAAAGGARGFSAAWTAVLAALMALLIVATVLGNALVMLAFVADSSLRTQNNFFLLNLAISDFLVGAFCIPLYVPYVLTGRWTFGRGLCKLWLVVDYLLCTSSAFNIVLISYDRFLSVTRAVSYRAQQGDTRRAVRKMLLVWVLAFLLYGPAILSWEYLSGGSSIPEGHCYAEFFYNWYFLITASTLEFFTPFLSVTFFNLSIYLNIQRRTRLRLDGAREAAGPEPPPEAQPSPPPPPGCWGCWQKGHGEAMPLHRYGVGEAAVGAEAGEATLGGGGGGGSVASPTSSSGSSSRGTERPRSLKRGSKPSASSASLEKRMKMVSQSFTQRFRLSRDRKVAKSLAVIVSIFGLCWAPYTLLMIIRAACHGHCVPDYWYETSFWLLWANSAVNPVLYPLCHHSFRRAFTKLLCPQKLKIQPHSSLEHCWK
Chain of Oxidase, MAO-A, Peripheral (P21397 whole entry): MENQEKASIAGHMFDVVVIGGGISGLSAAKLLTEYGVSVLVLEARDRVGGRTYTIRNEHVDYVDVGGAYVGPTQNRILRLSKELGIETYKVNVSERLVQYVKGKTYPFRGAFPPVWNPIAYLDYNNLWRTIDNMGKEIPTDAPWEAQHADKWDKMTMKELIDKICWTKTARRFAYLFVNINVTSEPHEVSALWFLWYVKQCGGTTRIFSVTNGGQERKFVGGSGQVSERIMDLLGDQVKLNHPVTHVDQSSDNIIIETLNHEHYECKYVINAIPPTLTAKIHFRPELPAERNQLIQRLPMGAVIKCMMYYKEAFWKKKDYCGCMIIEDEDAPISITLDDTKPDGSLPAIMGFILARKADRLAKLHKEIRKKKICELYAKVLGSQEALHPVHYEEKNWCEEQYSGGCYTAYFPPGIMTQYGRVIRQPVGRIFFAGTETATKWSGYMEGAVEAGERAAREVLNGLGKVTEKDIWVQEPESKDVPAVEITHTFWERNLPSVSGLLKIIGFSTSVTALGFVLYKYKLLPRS
T4 sequence (P10635 whole entry): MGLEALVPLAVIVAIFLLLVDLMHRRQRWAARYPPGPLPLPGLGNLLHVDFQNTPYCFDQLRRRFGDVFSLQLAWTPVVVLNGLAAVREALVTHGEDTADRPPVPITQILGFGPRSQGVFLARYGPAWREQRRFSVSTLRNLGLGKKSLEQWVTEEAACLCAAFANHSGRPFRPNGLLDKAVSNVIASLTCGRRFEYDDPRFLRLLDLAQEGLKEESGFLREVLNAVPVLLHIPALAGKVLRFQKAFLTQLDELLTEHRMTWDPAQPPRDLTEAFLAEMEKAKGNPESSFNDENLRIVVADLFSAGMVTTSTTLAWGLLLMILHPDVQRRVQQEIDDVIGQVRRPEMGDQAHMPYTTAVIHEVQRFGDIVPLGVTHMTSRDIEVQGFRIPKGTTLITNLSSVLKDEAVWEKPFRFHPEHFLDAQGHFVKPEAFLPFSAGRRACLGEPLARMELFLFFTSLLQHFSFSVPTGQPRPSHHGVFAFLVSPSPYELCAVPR
Chain of Testosterone (cytosolic) (P10275 whole entry): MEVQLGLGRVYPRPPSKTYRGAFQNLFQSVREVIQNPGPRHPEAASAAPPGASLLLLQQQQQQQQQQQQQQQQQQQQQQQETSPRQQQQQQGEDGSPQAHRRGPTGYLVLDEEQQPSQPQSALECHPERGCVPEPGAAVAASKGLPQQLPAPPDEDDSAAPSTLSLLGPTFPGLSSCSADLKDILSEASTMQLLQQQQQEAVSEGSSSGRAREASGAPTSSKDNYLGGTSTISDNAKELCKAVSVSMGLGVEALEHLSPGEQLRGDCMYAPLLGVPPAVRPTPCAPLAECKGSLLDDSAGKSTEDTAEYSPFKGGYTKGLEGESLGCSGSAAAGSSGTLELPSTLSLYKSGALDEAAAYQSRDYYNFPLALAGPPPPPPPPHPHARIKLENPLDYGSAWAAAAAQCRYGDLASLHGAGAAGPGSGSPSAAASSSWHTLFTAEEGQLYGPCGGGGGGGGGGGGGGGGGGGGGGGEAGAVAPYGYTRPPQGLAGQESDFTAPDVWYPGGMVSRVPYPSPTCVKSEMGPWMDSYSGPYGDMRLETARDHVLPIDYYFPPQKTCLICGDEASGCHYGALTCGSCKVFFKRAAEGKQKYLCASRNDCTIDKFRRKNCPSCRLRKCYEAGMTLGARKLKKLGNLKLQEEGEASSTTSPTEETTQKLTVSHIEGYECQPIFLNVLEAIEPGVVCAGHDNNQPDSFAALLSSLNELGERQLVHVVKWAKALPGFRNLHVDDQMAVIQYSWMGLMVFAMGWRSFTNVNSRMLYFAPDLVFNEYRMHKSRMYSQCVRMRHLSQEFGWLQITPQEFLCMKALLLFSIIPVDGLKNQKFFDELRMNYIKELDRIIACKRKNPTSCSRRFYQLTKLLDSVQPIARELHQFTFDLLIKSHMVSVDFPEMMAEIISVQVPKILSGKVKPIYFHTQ

What does the source list for `CC(CC(=O)O)N1CCC(=C2c3ccc(F)cc3COc3ccccc32)CC1` (stereo not drawn) [Compound 37]?
percentage inhibition of specific binding (Glutamate, Kainate Site): 1.51%; percentage inhibition [1]: −17.23% ^; percentage inhibition of specific binding [2]: 2.51%; percentage inhibition of specific binding (Galanin, Non-Selective): −5.07%; inhibition at 1 µM (Bradykinin, BK2): -3.04%; inhibition at 1 µM [3]: -12.5%; inhibition at 1 µM (Histamine, H3): 5.11%; percentage inhibition of specific binding [4]: −3.79%; inhibition at 1 µM [5]: 3.98%; inhibition at 1 µM (Testosterone (cytosolic)): 0.24%; inhibition at 1 µM (Oxytocin): -5.82%; inhibition at 1 µM (Leukotriene, LTD4): -20.1%; percentage inhibition [6]: 6.51%; inhibition at 1 µM (Vasopressin 1): 11.6%; percentage inhibition of specific binding [7]: 12.84%; inhibition at 1 µM [8]: -4.17%

Which “inhibition of CYP 2C19 activity” value (CYP 2C19) does the source give for `CC(C)(CN1CCC(=C2c3ccc(F)cc3COc3ccccc32)CC1)C(=O)O` [Compound 49a] here?
Its value is “did not inhibit”.

What about the half-life ([9]; plasma, rat, 3 mg/kg) of the same compound?
Its half-life is 1.1 h.

And the Tmax ([9]; plasma, rat, 3 mg/kg, after oral administration)?
Its Tmax is 0.25 h.

And the Peak plasma levels ([9]; rats, most efficacious dose of 3 mg/kg in the sleep assay)?
The Peak plasma levels was “less than 1.5 mM”.

What about the “inhibition of CYP 2C9 activity” value (CYP 2C9) of the same compound?
The value was “did not inhibit”.

What about the “inhibition of CYP 2D6 activity” value (CYP 2D6) of the same compound?
Its value is “did not inhibit”.

What about the half-life [10] of the same compound?
The half-life was 4.4 h.

And the Tmax ([10]; after oral administration)?
Its Tmax is 1.5 h.

And the “persistence of tachycardia postdose” value (telemetered Beagle dogs; 0.3 and 1 mg/kg)?
The value was 6 to 8 h.

And the peak heart rate (telemetered Beagle dogs; 10 and 30 mg/kg dose groups)?
The peak heart rate was 150–160.

What about the “QT or corrected QT interval” value (telemetered Beagle dogs; doses of 0.3, 1, 3, 10, and 30 mg/kg) of the same compound?
Its value is “no changes in QT or corrected QT interval at any dose”.

And the heart rate effect (telemetered Beagle dogs; doses of 0.3 to 30 mg/kg, intravenous or oral)?
Its heart rate effect is “dose-related sinus tachycardia”.

What about the persistence of tachycardia (telemetered Beagle dogs; higher doses) of the same compound?
The persistence of tachycardia was 10 to 12 h.

What about the blood pressure (telemetered Beagle dogs; paralleled the tachycardia) of the same compound?
The blood pressure was “slight increase in blood pressure”.
